The values that follow come from US8722662B2, “Heterocyclic compounds” (Takeda Pharmaceutical Company Limited, priority 2010, dated 2014).

Counter-ions that a name gives are not always drawn.

The subject of one assay is SD female rats. The assay is described as follows: Measurement of urethral resistance increasing effect (leak point pressure), intravenous administration. In kind it is in vivo. The following applies: rat, 0.3 mg/kg and 1.0 mg/kg, 10 min after administration, compared to vehicle (Williams' test). The procedure: Experimental Example 4 Measurement of Urethral Resistance Increasing Effect
The urethral resistance increasing effect in rat was measured by a modified method of Matsumoto et al. (WO2009/063992) as follows. That is, SD female rats (CLEA Japan, Inc.) were anesthetized with isoflurane (1.0%; Abbott), and the spinal cord was transected at Th8-9 to avoid the voiding reflex. After laparotomy, an intravesical pressure measurement catheter and a saline infusion catheter (PE-100; Clay Adams) were inserted into the bladder. Thereafter, the abdomen of the rat was closed with aronalpha A “Sankyo” (Daiichi Sankyo). […] The intravesical pressure measurement catheter was connected to a computer via a pressure transducer (REF685640; Nihon Koden), an amplifier (RPM-6008M; Nihon Koden), and a multi-channel data analyzer (MP150; Biopack), and changes in the intravesical pressure were recorded on a hard disc at a frequency of 100 samples/sec. […] The LPP value (Pre value) was measured, a drug was intravenously administered, and the measurement of LPP value (Post value) was again started 10 min after administration. […]
The compound of Example 6 (0.3 mg/kg), the compound of Example 6 (1.0 mg/kg) and the vehicle were administered to the rats, and the urethral resistance increasing effect was measured by the aforementioned method.

The target of assay [1] is T1, human serotonin transporter (Homo sapiens, UniProt P31645).
T1 construct: expressed in transfected cells
T1 sequence (P31645 whole entry): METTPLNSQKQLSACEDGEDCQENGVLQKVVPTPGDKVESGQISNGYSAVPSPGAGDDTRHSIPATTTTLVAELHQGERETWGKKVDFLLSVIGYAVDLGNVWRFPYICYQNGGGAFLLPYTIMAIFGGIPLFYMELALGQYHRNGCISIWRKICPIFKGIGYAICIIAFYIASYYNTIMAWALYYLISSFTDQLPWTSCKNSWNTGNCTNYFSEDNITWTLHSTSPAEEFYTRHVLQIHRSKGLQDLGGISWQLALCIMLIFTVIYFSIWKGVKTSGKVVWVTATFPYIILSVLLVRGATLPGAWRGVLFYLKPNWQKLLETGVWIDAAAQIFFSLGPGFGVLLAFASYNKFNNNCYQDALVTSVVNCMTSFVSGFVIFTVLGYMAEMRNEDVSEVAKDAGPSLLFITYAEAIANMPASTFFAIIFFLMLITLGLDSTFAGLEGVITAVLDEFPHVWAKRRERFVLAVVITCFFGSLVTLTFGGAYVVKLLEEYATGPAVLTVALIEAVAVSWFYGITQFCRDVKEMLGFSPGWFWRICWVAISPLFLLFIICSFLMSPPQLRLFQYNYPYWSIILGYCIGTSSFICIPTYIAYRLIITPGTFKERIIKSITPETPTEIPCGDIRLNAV
The assay is described as follows: Inhibitory action on human serotonin transporter ([3H]-5-hydroxytryptamine uptake in CHO cells). In kind it is cell-based. As to conditions: relative to inhibitory activity of 10 μM Paroxetine as 100%, read-out: inhibitory rate (%). An excerpt: (2) Preparation of Human Monoamine Expressing Cell
(§1) Human serotonin transporter cDNA was amplified from human brain cDNA library by PCR, and inserted into pCRII-TOPO vector (manufactured by Invitrogen). The base sequence was confirmed and modified, and subcloned to pcDNA3.1 vector (manufactured by Invitrogen), whereby a human serotonin transporter expression plasmid was constructed. Human norepinephrine transporter cDNA was purchased from Invitrogen, and the base sequence was confirm and modified, and subcloned to pcDNA3.1 vector, whereby a human norepinephrine transporter expression plasmid was constructed. […]
The cultured cells that reached almost confluent were rinsed with PBS (Invitrogen), detached with Trypsin/EDTA (Invitrogen), and collected by a centrifugal operation. The obtained cells were counted, and diluted to 3×10^5 cells per 1 mL medium, the mixture was dispensed to a 96 well white plate (Corning) at 100 μL per well, and cultured overnight in a CO2 incubator.
(§2) Then, an assay buffer (126 mM NaCl, 4.95 mM KCl, 1.26 mM KH2PO4, 1.26 mM MgSO4, 10 mM HEPES, 2.32 mM CaCl2, 5.52 mM Glucose, 0.5% BSA) was prepared, the medium in the cell plate was removed and the assay buffer was added by 80 μL. […] The radioactivity was measured by TopCount (PerkinElmer). […]

The target in assay [2] is T2, human dopamine transporter (Homo sapiens, UniProt Q01959).
T2 construct: expressed in transfected cells
T2 sequence (Q01959 whole entry): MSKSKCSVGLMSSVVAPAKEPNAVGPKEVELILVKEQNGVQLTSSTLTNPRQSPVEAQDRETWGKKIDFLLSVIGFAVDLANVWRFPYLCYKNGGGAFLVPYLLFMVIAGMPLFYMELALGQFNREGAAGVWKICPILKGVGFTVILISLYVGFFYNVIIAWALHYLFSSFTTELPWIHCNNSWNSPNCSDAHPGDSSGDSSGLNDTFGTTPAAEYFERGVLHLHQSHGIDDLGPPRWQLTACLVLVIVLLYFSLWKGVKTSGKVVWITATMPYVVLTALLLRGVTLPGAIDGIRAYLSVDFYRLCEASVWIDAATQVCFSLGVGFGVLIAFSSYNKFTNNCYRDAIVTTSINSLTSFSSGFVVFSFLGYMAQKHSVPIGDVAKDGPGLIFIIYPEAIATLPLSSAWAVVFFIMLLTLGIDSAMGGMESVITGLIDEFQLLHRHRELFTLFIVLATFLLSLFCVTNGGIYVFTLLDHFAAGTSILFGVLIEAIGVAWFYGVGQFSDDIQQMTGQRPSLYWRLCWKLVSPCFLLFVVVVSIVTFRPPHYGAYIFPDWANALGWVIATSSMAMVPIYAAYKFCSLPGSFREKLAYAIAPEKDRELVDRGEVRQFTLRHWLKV
The assay is described as follows: Inhibitory action on human dopamine transporter ([3H]-dopamine uptake in CHO cells). In kind it is cell-based. The following applies: relative to inhibitory activity of 100 μM Nomifensine as 100%, read-out: inhibitory rate (%). From the text: (1) Construction of Human Dopamine Transporter Expression Plasmid
SRα promoter contained in pTB1411 described in JP-A-H5-076385 was cleaved with restriction enzyme HindIII (manufactured by TAKARA BIO INC.), blunt-ended, further cleaved with restriction enzyme EcoRI (manufactured by TAKARA BIO INC.), and fragmented. On the other hand, pCI vector was cleaved with restriction enzyme BglII (manufactured by TAKARA BIO INC.), blunt-ended with T4 DNA polymerase, and further cleaved with restriction enzyme EcoRI (manufactured by TAKARA BIO INC.). Into this site was inserted an SRα promoter fragment to give pCI-SRa. […]
One day before the assay, the cultured cells that reached almost confluent were rinsed with PBS (Invitrogen), detached with Trypsin/EDTA (Invitrogen), and collected by a centrifugal operation. The obtained cells were counted, and diluted to 3×10^5 cells per 1 mL medium, and the mixture was dispensed to a 96 well white plate (Corning) at 100 μL per well, and cultured overnight in a CO2 incubator.
On the day of the test, an assay buffer (126 mM NaCl, 4.95 mM KCl, 1.26 mM KH2PO4, 1.26 mM MgSO4, 10 mM HEPES, 2.32 mM CaCl2, 5.52 mM Glucose, 0.5% BSA) was prepared, the medium in the cell plate was removed and the assay buffer was added by 80 μL. […] The radioactivity was measured by TopCount (PerkinElmer). […]

Assay [3] deals with human norepinephrine transporter (Homo sapiens, UniProt P23975). The assay is described as follows: Inhibitory action on human norepinephrine transporter ([3H]-norepinephrine uptake in CHO cells). In kind it is cell-based. As to conditions: relative to inhibitory activity of 10 μM DMI as 100%, read-out: inhibitory rate (%).
Sequence of human norepinephrine transporter (P23975 whole entry): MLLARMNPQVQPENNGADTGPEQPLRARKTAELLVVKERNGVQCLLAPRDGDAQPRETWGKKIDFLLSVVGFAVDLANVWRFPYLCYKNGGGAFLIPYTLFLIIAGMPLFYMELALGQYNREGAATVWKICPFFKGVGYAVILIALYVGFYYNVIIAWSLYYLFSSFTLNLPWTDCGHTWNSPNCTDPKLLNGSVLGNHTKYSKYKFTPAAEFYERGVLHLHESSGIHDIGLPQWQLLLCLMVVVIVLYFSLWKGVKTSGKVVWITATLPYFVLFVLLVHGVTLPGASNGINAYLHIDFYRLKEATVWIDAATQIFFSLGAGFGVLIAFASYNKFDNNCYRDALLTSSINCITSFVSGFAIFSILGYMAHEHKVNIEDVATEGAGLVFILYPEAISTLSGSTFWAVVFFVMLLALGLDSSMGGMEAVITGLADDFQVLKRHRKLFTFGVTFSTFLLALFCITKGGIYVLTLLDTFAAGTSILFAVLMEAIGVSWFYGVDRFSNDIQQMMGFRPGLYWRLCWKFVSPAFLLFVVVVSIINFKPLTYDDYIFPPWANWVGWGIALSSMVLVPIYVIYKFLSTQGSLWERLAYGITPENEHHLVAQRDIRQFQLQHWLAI
Excerpt: as §1
The cultured cells that reached almost confluent were rinsed with PBS (Invitrogen), detached with Trypsin/EDTA (Invitrogen), and collected by a centrifugal operation. The obtained cells were counted, and diluted to 3×10^5 cells per 1 mL medium, and the mixture was dispensed to a 96 well white plate (Corning) at 100 μL per well, and cultured overnight in a CO2 incubator.
as §2

`CC(=O)NC[C@H]1CNCCO[C@@H]1c1ccc(Cl)c(Cl)c1` (racemic) [Example 6, N-{[(6RS,7SR)-7-(3,4-dichlorophenyl)-1,4-oxazepan-6-yl]methyl}acetamide monohydrochloride]: in the assay on SD female rats, the “urethral resistance increasing effect (LPP Post value minus Pre value)” value was “dose-dependent and significant urethral resistance increasing effect”.
As for `OC[C@H]1NCCOC[C@@H]1c1ccc(Cl)c(Cl)c1` (racemic) [Example 14, [(5RS,6SR)-6-(3,4-dichlorophenyl)-1,4-oxazepan-5-yl]methanol monohydrochloride], the results for the inhibition at 1 µM in assay [1] (compound 1 μM), in assay [2] (compound 1 μM) and in assay [3] (compound 1 μM) were 31%, 87% and 98%, respectively. The inhibition at 10 µM in assay [1] (compound 10 μM, CHO cells expressing human serotonin transporter) came out at 79%; in assay [2] (compound 10 μM) it was 99%; in assay [3] (compound 10 μM), 100%.
